Counter-ions that a name gives are not always drawn.
What follows are molecules tested against ROCK2 (Homo sapiens (Human), UniProt O75116) (assay: biochemical).
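Further: rho kinase enzyme reaction halted with EDTA, phospho- and non-phospho peptide separated for read-out, kinase activity inhibition derived across a dose-response series, DMSO under 2%.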

ROCK2, sequence (O75116 whole entry, species assumed): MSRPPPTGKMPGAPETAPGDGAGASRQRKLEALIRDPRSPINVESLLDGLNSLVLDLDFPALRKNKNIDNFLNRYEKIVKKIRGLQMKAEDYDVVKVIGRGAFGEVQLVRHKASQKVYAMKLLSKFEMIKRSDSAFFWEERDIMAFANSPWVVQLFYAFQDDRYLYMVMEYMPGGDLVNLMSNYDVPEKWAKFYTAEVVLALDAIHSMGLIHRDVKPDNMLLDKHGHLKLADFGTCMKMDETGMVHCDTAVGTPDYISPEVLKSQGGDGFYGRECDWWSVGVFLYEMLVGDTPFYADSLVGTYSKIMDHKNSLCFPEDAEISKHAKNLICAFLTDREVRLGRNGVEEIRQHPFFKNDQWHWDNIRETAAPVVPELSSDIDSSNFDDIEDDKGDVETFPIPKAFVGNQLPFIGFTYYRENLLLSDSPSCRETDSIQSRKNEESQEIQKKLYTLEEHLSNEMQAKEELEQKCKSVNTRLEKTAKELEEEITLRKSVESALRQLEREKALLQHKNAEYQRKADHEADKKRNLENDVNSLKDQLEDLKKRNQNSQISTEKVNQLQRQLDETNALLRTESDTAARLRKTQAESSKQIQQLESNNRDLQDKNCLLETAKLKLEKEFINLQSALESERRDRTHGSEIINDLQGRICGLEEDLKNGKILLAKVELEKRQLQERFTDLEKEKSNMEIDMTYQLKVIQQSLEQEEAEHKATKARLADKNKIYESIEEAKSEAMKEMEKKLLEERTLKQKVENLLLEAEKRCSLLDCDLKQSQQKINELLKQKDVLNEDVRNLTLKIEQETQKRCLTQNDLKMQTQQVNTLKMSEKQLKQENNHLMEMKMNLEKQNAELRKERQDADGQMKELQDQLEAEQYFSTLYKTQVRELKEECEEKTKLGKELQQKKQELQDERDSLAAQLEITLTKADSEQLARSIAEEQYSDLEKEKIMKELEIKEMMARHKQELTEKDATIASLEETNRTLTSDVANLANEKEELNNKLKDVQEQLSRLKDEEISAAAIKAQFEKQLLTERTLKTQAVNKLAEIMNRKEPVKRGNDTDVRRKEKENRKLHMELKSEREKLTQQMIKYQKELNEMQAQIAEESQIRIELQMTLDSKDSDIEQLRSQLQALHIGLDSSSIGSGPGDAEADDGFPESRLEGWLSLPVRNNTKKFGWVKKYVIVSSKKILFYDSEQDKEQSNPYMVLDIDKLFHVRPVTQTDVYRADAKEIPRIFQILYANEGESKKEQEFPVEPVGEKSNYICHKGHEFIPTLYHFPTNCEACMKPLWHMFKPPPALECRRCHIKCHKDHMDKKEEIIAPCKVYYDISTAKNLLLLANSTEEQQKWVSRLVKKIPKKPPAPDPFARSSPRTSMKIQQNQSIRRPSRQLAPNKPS

Compared with `O=C1C(Nc2ccc3c(c2)OC(F)(F)O3)CCN1c1ccc(-c2cn[nH]c2)cc1` (single isomer, unassigned) [Example 53, 1-(4-(1H-pyrazol-4-yl)phenyl)-3-((2,2-difluorobenzo[d][1,3]dioxol-5-yl)amino)pyrrolidin-2-one], `O=C1C(Nc2cccc(F)c2)CCN1c1ccc(-c2cn[nH]c2)cc1` (centres unmarked) [Example 62, 1-(4-(1H-pyrazol-4-yl)phenyl)-3-((3-fluorophenyl)amino)pyrrolidin-2-one] is lower in IC50: 0.1 to 2.2 µM for the first, under 0.01 µM for the second. The second is the more potent here.

Compared with `COc1cc(N2CCC(Nc3cccc(OC(F)F)c3)C2=O)ccc1-c1cn[nH]c1` (centres unmarked) [Example 69, 3-((3-(difluoromethoxy)phenyl)amino)-1-(3-methoxy-4-(1H-pyrazol-4-yl)phenyl)pyrrolidin-2-one], `COc1cccc(NC2CCN(c3ccc(-c4cn[nH]c4)c(OC)c3)C2=O)c1` (centres unmarked) [Example 68, 1-(3-methoxy-4-(1H-pyrazol-4-yl)phenyl)-3-((3-methoxyphenyl)amino)pyrrolidin-2-one] is lower in IC50: 0.01 to 0.1 µM for the first, under 0.01 µM for the second.

First: O=C1C(Nc2cncnc2)CCN1c1ccc(-c2cn[nH]c2)cc1 (racemic) [Example 227, 1-(4-(1H-pyrazol-4-yl)phenyl)-3-(pyrimidin-5-ylamino)pyrrolidin-2-one]
Second: COc1ccc(NC2CCN(c3ccc(-c4cn[nH]c4)cc3)C2=O)cc1F (single isomer, unassigned) [Example 13, 1-(4-(1H-Pyrazol-4-yl)phenyl)-3-((3-fluoro-4-methoxyphenyl)amino)pyrrolidin-2-one]
The IC50 of the first is lower: 0.01 to 0.1 µM for the first, 0.1 to 2.2 µM for the second.

`COc1cccc(NC2CCN(c3cnc(-c4cn[nH]c4)c(OC)n3)C2=O)c1` (centres unmarked) [Example 134, 1-(6-Methoxy-5-(1H-pyrazol-4-yl)pyrazin-2-yl)-3-((3-methoxyphenyl)amino) pyrrolidin-2-one] and `COc1cccc(NC2CCN(c3ccc(-c4cn[nH]c4)c(C)n3)C2=O)c1` (single isomer, unassigned) [Example 189, 3-((3-methoxyphenyl)amino)-1-(6-methyl-5-(1H-pyrazol-4-yl)pyridin-2-yl)pyrrolidin-2-one] cannot be ordered by IC50: under 0.01 µM for the first, under 0.01 µM for the second.

`COc1cc(NC2CCN(c3ccc(-c4cn[nH]c4)c(OC(F)F)c3)C2=O)ccc1F` (single isomer, unassigned) [Example 106, 1-[3-(difluoromethoxy)-4-(1H-pyrazol-4-yl)phenyl]-3-[(4-fluoro-3-methoxyphenyl)amino]pyrrolidin-2-one] and `COc1cccc(NC2CCN(c3ccc(-c4cn[nH]c4)c(C(F)F)c3)C2=O)c1` (single isomer, unassigned) [Example 176, 1-(3-(difluoromethyl)-4-(1H-pyrazol-4-yl)phenyl)-3-((3-methoxyphenyl)amino) pyrrolidin-2-one] fall in the same range of IC50: 0.01 to 0.1 µM for the first, 0.01 to 0.1 µM for the second.

Compared with `COc1cccc(NC2CCN(c3ccc(-c4cn[nH]c4)nc3)C2=O)c1` (single isomer, unassigned) [Example 297, 1-(6-(1H-pyrazol-4-yl)pyridin-3-yl)-3-((3-methoxyphenyl)amino)pyrrolidin-2-one], `COc1cccc(NC2CCN(c3ccc(-c4cn[nH]c4)cc3Cl)C2=O)c1` (single isomer, unassigned) [Example 166, 1-(2-chloro-4-(1H-pyrazo1-4-yl)phenyl)-3 ((3-methoxyphenyl)amino)pyrrolidin-2-one] is higher in IC50: 0.01 to 0.1 µM for the first, 0.1 to 2.2 µM for the second.

First: COc1cc(F)cc(NC2CCN(c3ccc(-c4cn[nH]c4)c(F)c3F)C2=O)c1 (single isomer, unassigned) [Example 309, 1-(2,3-difluoro-4-(1H-pyrazol-4-yl)phenyl)-3-((3-fluoro-5-methoxyphenyl)amino)pyrrolidin-2-one]
Second: COc1cc(F)cc(NC2CCN(c3cc(F)c(-c4cn[nH]c4)cc3F)C2=O)c1 (single isomer, unassigned) [Example 352, 1-(2,5-difluoro-4-(1H-pyrazol-4-yl)phenyl)-3-((3-fluoro-5-methoxyphenyl)amino)pyrrolidin-2-one]
The IC50 of the first is higher: 0.01 to 0.1 µM for the first, under 0.01 µM for the second.

`COc1cc(F)cc(NC2CCN(c3ccc(-c4cn[nH]c4)cc3F)C2=O)c1` (single isomer, unassigned) [Example 338, 1-(2-fluoro-4-(1H-pyrazol-4-yl)phenyl)-3-((3-fluoro-5-methoxyphenyl)amino) pyrrolidin-2-one] and `COc1cccc(NC2CCN(c3ccc(-c4cn[nH]c4)c(C4CC4)c3)C2=O)c1` (single isomer, unassigned) [Example 363, 1-(3-cyclopropyl-4-(1H-pyrazol-4-yl)phenyl)-3-((3-methoxyphenyl)amino) pyrrolidin-2-one] fall in the same range of IC50: 0.01 to 0.1 µM for the first, 0.01 to 0.1 µM for the second.

First: COc1nc(N2CCC(Nc3cc(C)n(C)n3)C2=O)ccc1-c1cn[nH]c1 (racemic) [Example 271, 3-((1,5-dimethyl-1H-pyrazol-3-yl)amino)-1-(6-methoxy-5-(1H-pyrazol-4-yl)pyridin-2-yl)pyrrolidin-2-one]
Second: COc1nc(N2CCC(Nc3ccc4ncsc4c3)C2=O)ccc1-c1cn[nH]c1 (racemic) [Example 259, 3-(benzo[d]thiazol-6-ylamino)-1-(6-methoxy-5-(1H-pyrazol-4-yl)pyridin-2-yl)pyrrolidin-2-one]
The IC50 of the first is higher: 0.1 to 2.2 µM for the first, under 0.01 µM for the second. The second is the more potent here.

`O=C1C(Cc2ccccc2Cl)CCN1c1ccc(-c2cn[nH]c2)cc1` (centres unmarked) [Example 95, 1-(4-(1H-pyrazol-4-yl)phenyl)-3-(2-chlorobenzyl)pyrrolidin-2-one] and `N#Cc1cccc(CC2CCN(c3ccc(-c4cn[nH]c4)cc3)C2=O)c1` (centres unmarked) [Example 97, 3-((1-(4-(1H-pyrazol-4-yl)phenyl)-2-oxopyrrolidin-3-yl)methyl)benzonitrile] fall in the same range of IC50: 0.1 to 2.2 µM for the first, 0.1 to 2.2 µM for the second.

First: COc1nc(N2CCC(N3CC[C@H](F)C3)C2=O)ccc1-c1cn[nH]c1 (mixture of isomers) [Example 290, (3S)-3-fluoro-1′-(6-methoxy-5-(1H-pyrazol-4-yl)pyridin-2-yl)-[l,3′-bipyrrolidin]-2′-one hydrochloride]
Second: COc1nc(N2CCC(N3CCc4cccnc43)C2=O)ccc1-c1cn[nH]c1 (racemic) [Example 281, 3-(2,3-dihydro-1H-pyrrolo[2,3-b]pyridin-1-yl)-1-(6-methoxy-5-(1H-pyrazol-4-yl)pyridin-2-yl)pyrrolidin-2-one]
The IC50 of the first is higher: 0.1 to 2.2 µM for the first, 0.01 to 0.1 µM for the second. The second is the more potent here.

Compared with `CNc1nc(N2CCC(Nc3cccc(OC)c3)C2=O)ccc1-c1cn[nH]c1` (single isomer, unassigned) [Example 253, 3-((3-methoxyphenyl)amino)-1-(6-(methylamino)-5-(1H-pyrazol-4-yl)pyridin-2-yl)pyrrolidin-2-one], `COc1nc(N2CCC(Nc3cccc(OCC4CC4)c3)C2=O)ccc1-c1cn[nH]c1` (single isomer, unassigned) [Example 214, 3-((3-(cyclopropylmethoxy)phenyl)amino)-1-(6-methoxy-5-(1H-pyrazol-4-yl)pyridin-2-yl)pyrrolidin-2-one] is lower in IC50: 0.01 to 0.1 µM for the first, under 0.01 µM for the second. The second is the more potent here.

First: CN(C)c1cccc(N[C@@H]2CCN(c3ccc(-c4cn[nH]c4)cc3)C2=O)c1 [Example 390, (R)-1-(4-(1H-pyrazol-4-yl)phenyl)-3-((3-(dimethylamino)phenyl)amino)pyrrolidin-2-one]
Second: COc1nc(N2CCC(Nc3cccc(C(N)=O)c3)C2=O)ccc1-c1cn[nH]c1 (racemic) [Example 258, 3-((1-(6-methoxy-5-(1H-pyrazol-4-yl)pyridin-2-yl)-2-oxopyrrolidin-3-yl)amino)benzamide]
The IC50 of the first is higher: 0.1 to 2.2 µM for the first, under 0.01 µM for the second. The second is the more potent here.

Source: patent publication US10112929B2, “Lactams as inhibitors of rock” (BRISTOL-MYERS SQUIBB COMPANY, priority 2015, dated 2018)
